Here are results for 21 compounds from ChEMBL document CHEMBL4118176, “N-aryl-piperidine-4-carboxamides as a novel class of potent inhibitors of MALT1 proteolytic activity” (Bioorg Med Chem Lett, 2018).

Converted amounts (≈) assume the structure as drawn. A value given as a limit tells only on which side of the number the result lay.

Data set [1] has as its target T1, Mucosa-associated lymphoid tissue lymphoma translocation protein 1 (Homo sapiens, UniProt Q9UDY8).
T1 sequence (Q9UDY8 whole entry): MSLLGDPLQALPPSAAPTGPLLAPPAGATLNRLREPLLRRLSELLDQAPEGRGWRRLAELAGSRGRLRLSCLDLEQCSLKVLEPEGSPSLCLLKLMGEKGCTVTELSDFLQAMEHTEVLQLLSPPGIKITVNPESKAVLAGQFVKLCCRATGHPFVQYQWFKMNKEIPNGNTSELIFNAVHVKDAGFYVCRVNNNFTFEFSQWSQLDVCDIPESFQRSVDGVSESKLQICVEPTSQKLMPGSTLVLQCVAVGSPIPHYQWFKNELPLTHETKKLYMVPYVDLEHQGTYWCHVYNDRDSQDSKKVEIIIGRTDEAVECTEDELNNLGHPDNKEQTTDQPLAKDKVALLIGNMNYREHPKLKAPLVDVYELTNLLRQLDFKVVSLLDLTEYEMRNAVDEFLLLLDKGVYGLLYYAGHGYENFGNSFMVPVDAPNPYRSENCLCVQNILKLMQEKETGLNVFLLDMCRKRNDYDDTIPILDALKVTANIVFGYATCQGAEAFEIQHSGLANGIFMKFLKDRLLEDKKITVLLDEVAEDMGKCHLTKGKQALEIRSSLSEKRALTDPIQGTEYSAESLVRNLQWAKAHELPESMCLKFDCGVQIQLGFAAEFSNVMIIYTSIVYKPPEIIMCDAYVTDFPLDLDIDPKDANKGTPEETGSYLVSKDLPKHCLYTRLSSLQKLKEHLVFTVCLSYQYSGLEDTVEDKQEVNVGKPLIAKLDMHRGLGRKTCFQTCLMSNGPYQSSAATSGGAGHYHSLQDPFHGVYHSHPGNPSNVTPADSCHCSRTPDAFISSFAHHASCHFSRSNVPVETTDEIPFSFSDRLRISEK
Briefly: Inhibition of MALT1 (unknown origin) using Ac-Trp-Leu-Arg-Ser-Arg'Cys(PT14)-NH2 as substrate preincubated for 60 mins followed by substrate addition measured after 60 mins by fluorescence assay.

In data set [2] the target is T1, Mucosa-associated lymphoid tissue lymphoma translocation protein 1. Briefly: Inhibition of MALT1 in human OCI-LY3 cells assessed a decrease in BCL10 cleavage after 24 hrs by ELISA. Type of data set: cell-based. Background: An ELISA detects its analyte on a solid surface through an enzyme-linked reagent.
The target in data set [3] is Mucosa-associated lymphoid tissue lymphoma translocation protein 1 (Homo sapiens, UniProt Q9UDY8). Briefly: Inhibition of cIAP2 fused MALT1 (unknown origin) expressed in HEK293 cells assessed as suppression of NF-kB activation after 24 hrs by luciferase reporter gene assay. Type of data set: cell-based. (Reporter assays use an easily measured gene product as a stand-in for the process of interest.)

The nature of data set [4]: AUC in rat at 1 mg/kg, iv. In kind it is ADME, organism-based. The conditions noted are these: in vivo.
Data set [5] is described as follows: Solubility of the compound in buffer at pH 4. Type of data set: physicochemical.
Data set [6] can be described thus: Oral bioavailability in rat at 3 mg/kg. In kind it is ADME, organism-based. The conditions noted are these: in vivo.
Data set [7] in a line: Clearance in rat at 1 mg/kg, iv or 3 mg/kg, po. The settings on record: in vivo. In kind it is ADME, organism-based.
Data set [8] is described as follows: Clearance in rat liver microsomes. In kind it is ADME, microsome. The conditions noted are these: read-out: CLH. Background: Liver microsomes are a subcellular fraction often used to study metabolism.
A short description of data set [9]: Volume of distribution at steady state in rat at 1 mg/kg, iv or 3 mg/kg, po. The conditions noted are these: in vivo, read-out: Vdss. Type of data set: ADME, organism-based.
A short description of data set [10]: Clearance in rat hepatocytes assessed per 10^6 cells. Type of data set: ADME, cell-based, Hepatocyte.
Data set [11] can be described thus: Solubility of the compound in buffer at pH 6.8. In kind it is physicochemical.
Data set [12] is described as follows: Half life in rat at 1 mg/kg, iv or 3 mg/kg, po. Type of data set: ADME, organism-based. The settings on record: in vivo.
A further data set relates to BJAB. The experiment in a line: Antiproliferative activity against human BJAB cells after 72 hrs by CellTiterGlo assay. In kind it is functional, cell-based.
Data set [13] addresses T1, Mucosa-associated lymphoid tissue lymphoma translocation protein 1. Briefly: Inhibition of MALT1 in PMA-stimulated human Jurkat T cells assessed as reduction in IL2 level pretreated for 30 mins followed by PMA-stimulation measured after 5.5 hr by bioluminescence assay. Type of data set: cell-based.
A further data set deals with OCI-Ly3. Briefly: Antiproliferative activity against human OCI-LY3 cells after 72 hrs by CellTiterGlo assay. The settings on record: OCI-Ly3, 72 h. Type of data set: functional, cell-based.
Data set [14] in a line: Apparent permeability from apical to basolateral side in human Caco2 cells. In kind it is ADME, cell-based. The settings on record: Caco-2.

As a reminder, the IC50 is the midpoint of a concentration-inhibition curve. The term EC50 denotes the concentration that produces a half-maximal response. High values mean lower potency in that assay, low ones higher potency in that assay. Take `O=C(Nc1ccc(F)c(Cl)c1)C1CCN(c2ncccn2)CC1`: the IC50 in [1] stood at 1.62 µM; in data set [3], 3.1 µM. Also, in data set [2], the concentration giving a half-maximal response (EC50) was found to be 5.4 µM.

As usually defined, the AUC is the area under the concentration-time curve, a measure of exposure. The term solubility denotes how much of the substance goes into solution per volume. Higher therefore signals a readily soluble substance. As usually defined, the bioavailability is the share of a dose that reaches the circulation, judged against a reference dose that is usually intravenous. A higher bioavailability goes with good availability. Broadly, the half-life is how long it takes for the measured level to halve. Low values mean fast loss, high ones slow loss. The compound `Cc1nc(C)n(-c2ccc(NC(=O)C3CCN(c4ncccc4[N+](=O)[O-])CC3)cc2Cl)n1` displayed an AUC in data set [4] of 0.914 µM·h. The figures for the solubility in [5] and in data set [11] were 170 µM (≈ 77.5 µg/mL) and 7 µM (≈ 3.19 µg/mL), respectively. In data set [6], this compound came in with a bioavailability of 46%. In [7], the clearance was 43 mL/min/kg. The CLint scaled in [8] was 29 mL/min/kg. For the same compound, the Vd in data set [9] is 1.1 L/kg. The compound also gave a CLH in [10] of 4.1 µL/min/1e6 cells. The compound also gave a half-life in data set [12] of 30 min. Also, the IC50 is 0.184 µM in data set [1] and 0.64 µM in [3].

For `O=C(Nc1ccccc1)C1CCN(c2ncccc2Cl)CC1`, the IC50 in [1] was 4.7 µM.

Take `CC(C)CN1CCC(C(=O)Nc2ccc(F)c(Cl)c2)CC1`: the IC50 in [1] was greater than 100 µM.

For the compound `O=C(NC1CCCCC1)C1CCN(c2ncccc2Cl)CC1`, the IC50 in data set [1] is greater than 100 µM.

For `O=C(Nc1ccc(F)c(Cl)c1)C1CCN(c2nccnc2Cl)CC1`, the IC50 was found to be 0.1 µM in data set [1] and 0.29 µM in data set [3]. Also, in [2], the EC50 came to 0.4 µM.

Consider `COc1ncc(NC(=O)C2CCN(c3ncccc3Cl)CC2)cc1Cl`, for which the IC50 in [1] was 0.013 µM; in data set [3], 0.19 µM. A half-maximal response in [2] (EC50) required 0.45 µM.

As for `O=C(Nc1cccc(Cl)c1)C1CCN(c2ncccc2Cl)CC1`, the IC50 in data set [1] came out at 0.21 µM; in data set [3], 1.59 µM. The compound further returned an EC50 in [2] of 3.4 µM.

Consider `O=C(Nc1ccc(F)c(Cl)c1)C1CCN(c2ccccc2)CC1`, for which the IC50 is 0.82 µM in data set [1] and 3.2 µM in data set [3]. In addition, the EC50 in data set [2] came to 9.2 µM.

`Cc1ccc(NC(=O)C2CCN(c3ncccc3Cl)CC2)cc1Cl` gave an AUC in [4] of 0.143 µM·h. The solubility in [5] and in [11] was less than 4 µM in each case. Further, the clearance in [7] came out at 320 mL/min/kg. In addition, the CLint scaled in data set [8] is 81 mL/min/kg. In addition, the Vd in [9] came out at 21.4 L/kg. The CLH in [10] stood at 173 µL/min/1e6 cells. Further, in data set [12], the half-life is 120 min. Moreover, the results for the IC50 in data set [1] and in [3] were 0.054 µM and 3.7 µM, respectively.

On to `O=C(Nc1ccc(F)c(Cl)c1)C1CCN(c2ncccc2Cl)CC1`, for which the IC50 in [1] worked out at 0.028 µM; in data set [3] it was 1.35 µM. Besides, in data set [2], the EC50 stood at 1.5 µM.

As for `N#Cc1cccnc1N1CCC(C(=O)Nc2ccc(F)c(Cl)c2)CC1`, the IC50 was found to be 0.42 µM in data set [1] and 2.7 µM in [3]. Moreover, a half-maximal response in data set [2] (EC50) required 2.1 µM.

Turning to `O=C(Nc1cnc(-n2nccn2)c(Cl)c1)C1CCN(c2ncccc2Cl)CC1`, the EC50 in the data set on BJAB was greater than 10 µM; in the data set with OCI-Ly3, 1.4 µM; in data set [2], 0.23 µM. Besides, the IC50 in data set [13] is 0.05 µM; in data set [1], 0.004 µM; in data set [3] it was 0.09 µM.

On to `Nc1cccnc1N1CCC(C(=O)Nc2cnc(-n3nccn3)c(Cl)c2)CC1`, for which the EC50 was greater than 10 µM with BJAB, 3.6 µM with OCI-Ly3 and 0.56 µM in data set [2]. The IC50 in [13] is 0.08 µM; in [1], 0.007 µM; in [3], 0.09 µM.

In turn, `O=C(Nc1ccc(F)c(Cl)c1)C1CCN(c2ccccn2)CC1` showed an IC50 in data set [1] of 1.9 µM.

As a reminder, the Papp A→B is the apparent permeability from the apical to the basolateral side of a cell layer. Turning to `Cc1cn(-c2cc(NC(=O)C3CCN(c4ncccc4Cl)CC3)cc(C(F)(F)F)c2)cn1`, the AUC in [4] came out at 0.623 µM·h. In addition, the Papp A→B in data set [14] was 7.2 ×10⁻⁶ cm/s. Further, the solubility is 690 µM (≈ 320 µg/mL) in data set [5] and 16 µM (≈ 7.42 µg/mL) in [11]. In data set [6], this compound gave a bioavailability of 46%. The clearance in data set [7] amounted to 56 mL/min/kg. Besides, the CLint scaled in data set [8] worked out at 60.2 mL/min/kg. Moreover, the Vd in data set [9] stood at 8.7 L/kg. Further, the CLH in [10] is 18.8 µL/min/1e6 cells. This compound gave a half-life in [12] of 144 min. Also, the IC50 in data set [1] came out at 0.34 µM; in data set [3] it was 3 µM.

In [4], `CNC(=O)c1ncn(-c2ccc(NC(=O)C3CCN(c4ncccc4Cl)CC3)cc2Cl)n1` had an AUC of 0.125 µM·h. In addition, in data set [14], the Papp A→B was found to be 8.2 ×10⁻⁶ cm/s. The solubility in data set [5] is 8 µM (≈ 3.79 µg/mL); in data set [11], less than 4 µM. The compound also showed a clearance in data set [7] of 282 mL/min/kg. Also, in data set [8], the CLint scaled stood at 59.8 mL/min/kg. Moreover, in [9], the Vd stood at 7.5 L/kg. This compound displayed a CLH in data set [10] of 228 µL/min/1e6 cells. In [12], this compound gave a half-life of 36 min. The IC50 in data set [1] was found to be 0.021 µM; in [3], 0.14 µM. This compound returned an EC50 in data set [2] of 0.21 µM.

Take `O=C(Nc1ccc(F)c(Cl)c1)C1CCN(Cc2ccc(F)cc2)CC1`: in data set [1], the IC50 is greater than 100 µM.

`Nc1cccnc1N1CCC(C(=O)Nc2ccc(F)c(Cl)c2)CC1`: the IC50 in [1] is 0.1 µM; in data set [3], 0.42 µM. Moreover, in [2], the EC50 came to 0.54 µM.

For `N#Cc1ccnc(N2CCC(C(=O)Nc3ccc(F)c(Cl)c3)CC2)c1`, the IC50 in data set [1] was determined as 9 µM.

As to `Nc1cccnc1N1CCC(C(=O)Nc2ccc(-n3nccn3)c(Cl)c2)CC1`, the AUC in data set [4] worked out at 0.161 µM·h. Moreover, the Papp A→B in [14] is 19.4 ×10⁻⁶ cm/s. Further, the results for the solubility in data set [5] and in data set [11] were 48 µM (≈ 19.1 µg/mL) and less than 4 µM, respectively. The EC50 is greater than 10 µM with BJAB, 2 µM in the data set with OCI-Ly3 and 0.19 µM in [2]. The clearance in [7] worked out at 259 mL/min/kg. Also, the CLint scaled in data set [8] was 102 mL/min/kg. Further, the Vd in data set [9] came to 4.1 L/kg. The compound also gave a half-life in data set [12] of 18 min. Also, the IC50 in [1] was determined as 0.035 µM; in data set [3], 0.11 µM.
